Columns and labels:
Assay type in all cases: in vivo, human
[1] = test system: healthy middle-aged and older adults; assay: Treatment-emergent adverse events and tolerability, randomized double blinded placebo controlled crossover study
Method: The inventors hypothesized that oral supplementation with the nicotinamide adenine dinucleotide (NAD+) increasing compound, nicotinamide riboside (NR) would reduce blood pressure (BP) and aortic pulse wave velocity (aPWV, a measure of large elastic artery stiffness). This hypothesis was tested in healthy middle-aged and older human adults (65±2 yrs, n=24) in a randomized, placebo-controlled crossover study.
(§1) Sixty subjects were consented for this study. This study was conducted in the Integrative Physiology of Aging Laboratory and the Clinical and Translational Research Center (CTRC) at the University of Colorado Boulder. All blood assays were performed at either Boulder Community Hospital or the University of Colorado Denver Anschutz Medical Campus CTRC Core Laboratory. All testing sessions were performed after an overnight fast and 24-hour abstention from exercise and alcohol consumption. All subjects refrained from all prescription medications for 24 hours and over the counter medications for 48 hours prior to all testing visits.
A randomized, double blinded, placebo controlled crossover design was implemented for this study. Healthy middle-aged and older (55-79 years) adult men and postmenopausal women were recruited from the Boulder/Denver metro area. Subjects were nonsmokers and free of clinical diseases as assessed by a medical history, physical examination, blood chemistry and resting and exercise ECG. […] Four subjects dropped out of the study prior to randomization due to time commitment and one subject was unresponsive to scheduling requests resulting in a total of 30 remaining subjects for randomization. Of these, fifteen subjects were randomized to Group A, which received placebo pills during the first 6 weeks of the study before crossing over to receive NR pills for 6 weeks. The remaining fifteen subjects were randomized to Group B, which received NR pills first followed by placebo. One subject was excluded from Group A due to a change in medication status that no longer met inclusion criteria and two subjects in Group A dropped out of the study due to a complaint of side effects. Two subjects were excluded from Group B due to a change in health or medication status that no longer met inclusion criteria and one subject dropped out of Group B due to a broken ankle, resulting in a total of 24 subjects who completed the trial (FIG. 1). These subjects were well matched by age, sex and baseline characteristics between groups and all baseline values were within normal clinical ranges, as shown in Table 1:
14 treatment-emergent adverse events (AEs) were reported by 7 of the 30 participants enrolled in the study.

[2] = test system: PBMCs; assay: NAD+ and related metabolites in PBMCs
Description: Oral NR supplementation effectively elevated levels of NAD^+ in PBMCs by about 60% compared with placebo (mean change=6.2 pMol/mg protein) (Table 6). […] Of note, NR also elevated levels of nicotinic acid adenine dinucleotide (NAAD) nearly 5-fold above the placebo condition. […] Though not significant, we also observed an ˜1.5-fold increase in nicotinamide mononucleotide (NMN; mean change=0.72 pMol/mg protein), which may indicate the possible conversion of NR to NMN by nicotinamide riboside kinase (NRK) enzymes or further metabolism of NaM into NMN by nicotinamide phosphoribosyltransferase (NAMPT). […] Collectively, these findings indicate that chronic NR supplementation effectively stimulates NAD^+ metabolism in healthy middle-aged and older men and women.

[3] = test system: healthy middle-aged and older adults; assay: Carotid-femoral pulse wave velocity (large elastic artery stiffness)
Method: Carotid-femoral PWV, the gold-standard assessment of elastic artery stiffness in humans, was measured using transcutaneous tonometry. Pressure waveforms were recorded simultaneously from the carotid and femoral arteries using two identical non-invasive pressure tonometers (SPT-301, Millar Instruments, Houston, Tex., USA). The transit distance was calculated as the distance between the carotid and femoral recording sites, after subtracting the distance between the carotid recording site and the sternal notch. PWV was calculated as the transit distance divided by the time delay between the foot of each pressure wave.

[4] = Total lipid panel
Method: as §1
Clinical laboratory values were obtained from blood samples collected at the end of each intervention phase in 21 subjects. Complete blood work was not obtained in three subjects due to a failed catheterization during at least one of the testing phases.

[5] = PBMCs, NR condition, mean ± SD, N = 21
[6] = PBMCs, NR condition, mean ± SD, N = 21, *p < 0.05
[7] = PBMCs, did not reach statistical significance
[8] = end of 6-week phase, mean ± SEM, 21 subjects

NC(=O)c1ccc[n+]([C@@H]2O[C@H](CO)[C@@H](O)[C@H]2O)c1 [NR, nicotinamide riboside]
Drowsiness, # events ([1]; NR condition, 6 weeks oral): 0 (0)
Drowsiness, # events/patient ([1]; NR condition, 6 weeks oral): 0 (0)
Fainting, # events ([1]; NR condition, 6 weeks oral): 0 (0)
Fainting, # events/patient ([1]; NR condition, 6 weeks oral): 0 (0)
Flushing/Hot flashes, # events ([1]; NR condition, 6 weeks oral): 1 (1)
Flushing/Hot flashes, # events/patient ([1]; NR condition, 6 weeks oral): 1 (1)
Headache, # events ([1]; NR condition, 6 weeks oral): 0 (0)
Headache, # events/patient ([1]; NR condition, 6 weeks oral): 0 (0)
Increased Bruising, # events ([1]; NR condition, 6 weeks oral): 1 (1)
Increased Bruising, # events/patient ([1]; NR condition, 6 weeks oral): 1 (1)
Leg cramps, # events ([1]; NR condition, 6 weeks oral): 1 (1)
Leg cramps, # events/patient ([1]; NR condition, 6 weeks oral): 1 (1)
Nausea, # events ([1]; NR condition, 6 weeks oral): 1 (1)
Nausea, # events/patient ([1]; NR condition, 6 weeks oral): 1 (1)
Skin Rash, # events ([1]; NR condition, 6 weeks oral): 1 (1)
Skin Rash, # events/patient ([1]; NR condition, 6 weeks oral): 1 (1)
Severity of adverse events ([1]; all AEs): mild in severity
Tolerability ([1]; at the dose tested): well tolerated
Severe adverse events ([1]; during the study): No severe adverse events occurred
Association of flushing with supplementation ([1]; flushing reported in both placebo and NR conditions): unlikely associated with NR supplementation
Elevation of NAAD above the placebo condition ([2]; PBMCs): ~5 fold
NR ([2]; PBMCs, NR condition, N = 21): <LOQ
2-3 cAMP [2, 5]: 0.0 ± 0.0 pMol/mg protein
3-5 cAMP [2, 5]: 0.0 ± 0.0 pMol/mg protein
ADP [2, 5]: 1133.8 ± 1880.4 pMol/mg protein
AMP [2, 5]: 770.8 ± 1884.3 pMol/mg protein
CDP [2, 5]: 67.7 ± 113.1 pMol/mg protein
CMP [2, 5]: 137.2 ± 366.0 pMol/mg protein
CTP [2, 5]: 41.0 ± 68.4 pMol/mg protein
Cytidine [2, 5]: 4.7 ± 6.6 pMol/mg protein
FAD [2, 5]: 10.2 ± 5.9 pMol/mg protein
GDP [2, 5]: 198.4 ± 329.0 pMol/mg protein
GMP [2, 5]: 1010.1 ± 2114.8 pMol/mg protein
GTP [2, 5]: 327.1 ± 119.1 pMol/mg protein
Guanosine [2, 5]: 0.5 ± 1.5 pMol/mg protein
NADP [2, 5]: 8.9 ± 8.7 pMol/mg protein
NMN [2, 5]: 1.2 ± 3.3 pMol/mg protein
NaM [2, 5]: 383.8 ± 282.7 pMol/mg protein
UDP [2, 5]: 270.0 ± 420.7 pMol/mg protein
UMP [2, 5]: 1113.7 ± 2374.2 pMol/mg protein
UTP [2, 5]: 340.3 ± 150.1 pMol/mg protein
Uridine [2, 5]: 278.3 ± 718.4 pMol/mg protein
cCMP [2, 5]: 1.8 ± 8.4 pMol/mg protein
cGMP [2, 5]: 0.0 ± 0.0 pMol/mg protein
ATP [2, 6]: 2435.7 ± 1230.3* pMol/mg protein
Adenosine [2, 6]: 14.4 ± 9.7* pMol/mg protein
NAAD [2, 6]: 1.4 ± 2.2* pMol/mg protein
NAD+ [2, 6]: 16.2 ± 14.1* pMol/mg protein
ATP mean change ([2]; PBMCs, NR vs placebo): 699 pMol/mg protein
Mean concentration of adenosine ([2]; PBMCs, NR vs placebo): increases in the mean concentration
Mean concentration of nicotinamide (NaM) ([2]; PBMCs, NR vs placebo): elevated the mean concentration of nicotinamide (NaM), but this was not statistically significant
Mean level of NADP+ ([2]; PBMCs, NR vs placebo): increased, but did not reach statistical significance
NAD+ mean change ([2]; PBMCs, NR vs placebo): 6.2 pMol/mg protein
NMN mean change ([2]; PBMCs, NR vs placebo): 0.72 pMol/mg protein
Levels of adenosine diphosphate (ADP) [2, 7]: tended to raise
Levels of adenosine monophosphate (AMP) [2, 7]: tended to raise
Increase in NMN ([2]; PBMCs, not significant): ~1.5 fold
Elevation of NAD+ levels in PBMCs compared with placebo ([2]; oral NR supplementation): about 60%
PWV lowering by baseline blood pressure status ([3]; all subjects, regardless of baseline blood pressure status): lowered PWV by a similar degree in all subjects
Large elastic artery stiffness, aortic pulse wave velocity (PWV) ([3]; following NR supplementation compared with placebo): significantly reduced
Difference between treatment conditions for blood lipid profiles ([4]; NR vs placebo): No meaningful differences
HDL-C [4, 8]: 60 ± 5 mg/dL
LDL-C [4, 8]: 94 ± 5 mg/dL
N-HDL-C [4, 8]: 111 ± 6 mg/dL
Total cholesterol [4, 8]: 171 ± 6 mg/dL
Triglycerides [4, 8]: 90 ± 14 mg/dL
VLDL-C [4, 8]: 17 ± 3 mg/dL

— patent US20200121704A1, “METHODS FOR TREATING HYPERTENSION AND ARTERIAL STIFFNESS” (THE REGENTS OF THE UNIVERSITY OF COLORADO, A BODY CORPORATE, priority 2017, published 2020)
